Measurements taken from PMC7270141 (International Journal for Parasitology: Drugs and Drug …, 2020).
Read-outs that look alike come from different tables or passages of the source.

Tests used:
[1] = Single-point metabolic stability, human liver microsomes; type: in vitro ADME
[2] = tested on: P. falciparum multidrug-resistant W2 strain; assay: SYBR Green I fluorescence assay, asexual parasite proliferation, W2 strain; type: cell-based; settings: for Resistance Index (RI) = IC50 for W2/IC50 for NF54: W2 vs NF54
[3] = Solubility, miniaturised shake-flask method; type: physicochemical; settings: PBS pH 6.5, 24 h at 25 °C, HPLC-DAD, unit from abstract
P. berghei = settings: murine P. berghei, after a single oral dose; ref François et al., 1997c; cited from earlier work
[4] = Single-point metabolic stability, mouse liver microsomes; type: in vitro ADME
[5] = Single-point metabolic stability, rat liver microsomes; type: in vitro ADME
HepG2 cells = assay: Lactate dehydrogenase; settings: for Selectivity Index (SI) = EC50 for HepG2/IC50 for NF54: HepG2 vs NF54
Lactate dehydrogenase = settings: human, Cytotoxicity EC50, HepG2, HepG2, LDH leakage, mean ± SEM, n ≥ 2
[6] = Plasmodium falciparum, W2, 96 h, read-out: Inhibition of parasite proliferation IC50, W2, multidrug-resistant W2, 96 h drug pressure, mean ± SEM, n ≥ 2

Compound | % Remaining after 30 min, Human ([1]; 1 μM, human liver microsomes 0.4 mg/ml, 30 min, 37 °C) | Microsomal clearance, Human ([1]; in vitro intrinsic clearance, human liver microsomes) | Resistance Index (RI) = IC50 for W2/IC50 for NF54 [2] | IC50 ([2]; read-out: Inhibition of parasite proliferation IC50, W2, multidrug-resistant W2, 96 h drug pressure, mean ± SEM, n ≥ 2) | Solubility PBS (pH 6.5) [3] | Parasitaemia decreased (P. berghei) | % Remaining after 30 min, Mouse ([4]; 1 μM, mouse liver microsomes 0.4 mg/ml, 30 min, 37 °C) | Microsomal clearance, Mouse ([4]; in vitro intrinsic clearance, mouse liver microsomes) | % Remaining after 30 min, Rat ([5]; 1 μM, rat liver microsomes 0.4 mg/ml, 30 min, 37 °C) | Microsomal clearance, Rat ([5]; in vitro intrinsic clearance, rat liver microsomes) | Selectivity Index (SI) = EC50 for HepG2/IC50 for NF54 (HepG2 cells) | EC50 (HepG2 cells; read-out: Cytotoxicity EC50, HepG2, HepG2, LDH leakage, mean ± SEM, n ≥ 2) | IC50 [2, 6] | EC50 (Lactate dehydrogenase) | remaining at 0.5 h, 1 μM ([1]; both, human, liver microsomes, % Remaining after 30 min, Human, 1 μM, human liver microsomes 0.4 mg/ml, 30 min, 37 °C) | remaining at 0.5 h, 1 μM ([4]; male, CD1, mouse, liver microsomes, % Remaining after 30 min, Mouse, 1 μM, mouse liver microsomes 0.4 mg/ml, 30 min, 37 °C) | remaining at 0.5 h, 1 μM ([5]; male, IGS, rat, liver microsomes, % Remaining after 30 min, Rat, 1 μM, rat liver microsomes 0.4 mg/ml, 30 min, 37 °C)
COc1cc(C)c(-c2ccc(O)c3c2C[C@@H](C)N[C@@H]3C)c2cccc(O)c12 (single isomer, unassigned) [Dioncophylline C (2a), dioncophylline C] | 94% | <11.6 µL/min/mg | 2.9 | 0.112 ± 0.01 µM | 170 μM | 99.6% | 95% | <11.6 µL/min/mg | 95% | <11.6 µL/min/mg | 552.6 | 21.2 ± 4 µM | – | – | – | – | –
CCN(CC)CCCC(C)Nc1ccnc2cc(Cl)ccc12 (centres unmarked) [Chloroquine, reference compound] | – | – | 29.5 | – | – | – | – | – | – | – | 2855.4 | – | 0.382 ± 0.09 µM | 37 ± 4.5 µM | – | – | –
COc1cc(CO)c(-c2ccc3c(c2O)[C@@H](C)N[C@H](C)C3)c2cccc(O)c12 [Dioncopeltine A (5), dioncopeltine A] | – | – | 38.1 | – | – | – | – | – | – | – | 4890.8 | – | 0.304 ± 0.06 µM | 39 ± 13.1 µM | 98% | < 7% | > 99%
